This note sets out measurements from US20260256797A1, “NOVEL INDENONE DERIVATIVES AND USES THEREOF” (AMYLOID SOLUTION INC., priority 2022, published 2026).

The EC50 is the concentration that produces a half-maximal response.

Structures are written as SMILES. Where only a bound is given, the exact number is not on record here.

One assay concerns the target T1, Aβ1-42 (Homo sapiens, UniProt P05067).
T1 construct: dissolving Aβ1-42 or Tau-RD3 (Tau repeat domain 3) monomer in DMSO
Put plainly: Amyloid-beta (Aβ) disaggregation test by thioflavin-T assay. To be noted: 50 μM Aβ1-42 aggregated 24 hours, then compound 0-500 μM for 48 hours at 37° C. Type of assay: biochemical. As to the method:
(§1) Each compound was dissolved in DMSO to a concentration of 10 mM. Subsequently, the compound was diluted with 6% DMSO (in DW) and used.
(§2) Specifically, amyloid-beta and tau solutions were prepared by dissolving Aβ1-42 or Tau-RD3 (Tau repeat domain 3) monomer in DMSO to a concentration of 10 mM. Thereafter, each solution was diluted with DW to a concentration of 100 μM and stored on ice. Meanwhile, thioflavin-T was dissolved in 50 mM glycine buffer (pH 8.5) to a concentration of 5 mM. Thereafter, the resulting solution was diluted with 50 mM glycine buffer (pH 8.5) to a concentration of 5 μM and stored in a dark room while light was blocked.
(§3) Each of the amyloid-beta and tau solutions prepared according to Experimental Example 1.1 was added to a 1.5 mL microcentrifuge tube to a concentration of 50 μM or 35 µM, and then a reaction was allowed to occur therebetween at 37° C. for 24 hours. Each of the 1.5 mL microcentrifuge tubes in which amyloid-beta aggregation and tau aggregation had been completed was treated with each compound at a concentrated of 500 μM to 0 μM through serial dilution, and then a further reaction was allowed to occur therebetween at 37° C. for 48 hours. 25 μL of the reaction solution in which the reaction had been completed was added to each well of a 96-well plate for fluorescence analysis, and 75 μL of the previously prepared thioflavin-T solution was added to each well. After a reaction was allowed to occur at room temperature in the dark for 5 minutes, fluorescence values were measured at excitation 450 nm and emission 485 nm by using a multi-mode microplate reader.
(§4) The fluorescence value of a group (control) treated with amyloid-beta or tau alone, followed by aggregation for 72 hours was converted into a percentage value and expressed as 100, and amyloid-beta and tau aggregates, in which aggregation had been completed upon reaction for 24 hours, were treated with each compound at each concentration and a further reaction was allowed to occur therebetween for 48 hours, and then fluorescence values thereof were measured and converted into relative values. The results thereof are illustrated in FIGS. 1 to 6 and 7 to 12. In addition, EC50 values of the compounds of the present disclosure for amyloid-beta and tau, respectively are summarized in Table 1.

For assay [1], the target named is Tau-RD3 (Tau repeat domain 3) (Homo sapiens, UniProt P10636). Put plainly: Tau disaggregation test by thioflavin-T assay. The format is biochemical. Particulars: 35 μM Tau-RD3 aggregated 24 hours, then compound 0-500 μM for 48 hours at 37° C. The method, then: as §1, §2, §3, §4
Sequence of Tau-RD3 (Tau repeat domain 3) (P10636 623-653 limits assumed): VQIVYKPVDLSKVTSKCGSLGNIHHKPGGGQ

T1 sequence (P05067 672-713 limits assumed): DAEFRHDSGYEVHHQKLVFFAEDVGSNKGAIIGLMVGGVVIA

Regarding `COc1ccc(OCCOc2ccc3c(c2)C(=O)C(c2ccc(C(F)(F)F)cc2)=C3c2ncsc2C)cc1OC` [Compound 33, 6-(2-(3,4-dimethoxyphenoxy)ethoxy)-3-(5-methylthiazol-4-yl)-2-(4-(trifluoromethyl)phenyl)-1H-inden-1-one], the concentration giving a half-maximal response (EC50) on Aβ1-42 amounted to 10.4 µM; in assay [1], 145 µM.

For the compound `Cc1scnc1C1=C(c2ccc(C(F)(F)F)cc2)C(=O)c2cc(OCCOc3ccc4c(c3)OCO4)ccc21` [Compound 34, 6-(2-(benzo[d][1,3]dioxol-5-yloxy)ethoxy)-3-(5-methylthiazol-4-yl)-2-(4-(trifluoromethyl)phenyl)-1H-inden-1-one], the values for the EC50 (at Aβ1-42; in assay [1]) were 31.2 µM and 426 µM, respectively.

For the compound `Cc1scnc1C1=C(c2ccc(C(F)(F)F)cc2)C(=O)c2cc(OCCOc3ccncc3)ccc21` [Compound 35, 3-(5-methylthiazol-4-yl)-6-(2-(pyridin-4-yloxy)ethoxy)-2-(4-(trifluoromethyl)phenyl)-1H-inden-1-one], the results for the EC50 (at Aβ1-42; in assay [1]) were 1 µM and above 500 µM, respectively.

As to `Cc1scnc1C1=C(c2cccs2)C(=O)c2cc(OCCOc3ccc(Cl)c(Cl)c3)ccc21` [Compound 36, 6-(2-(3,4-dichlorophenoxy)ethoxy)-3-(5-methylthiazol-4-yl)-2-(thiophen-2-yl)-1H-inden-1-one], the concentration giving a half-maximal response (EC50) at Aβ1-42 was 26 µM; in assay [1], above 500 µM.

As to `Cc1scnc1C1=C(c2cccs2)C(=O)c2cc(OCCOc3ccc(F)c(F)c3)ccc21` [Compound 37, 6-(2-(3,4-difluorophenoxy)ethoxy)-3-(5-methylthiazol-4-yl)-2-(thiophen-2-yl)-1H-inden-1-one], the EC50 on Aβ1-42 was 46.3 µM; in assay [1], 470 µM.

As to `O=C1C(c2cccnc2)=C(c2ccoc2)c2ccc(OCCc3ccccc3)cc21` [Compound 38, 3-(furan-3-yl)-6-phenethoxy-2-(pyridin-3-yl)-1H-inden-1-one], the EC50 worked out at 3 µM on Aβ1-42 and 120 µM in assay [1].

Turning to `O=C1C(c2cccnc2)=C(c2ccoc2)c2ccc(OCCCCc3ccccc3)cc21` [Compound 39, 3-(furan-3-yl)-6-(4-phenylbutoxy)-2-(pyridin-3-yl)-1H-inden-1-one], the 50% effective concentration (EC50) at Aβ1-42 is 2.6 µM; in assay [1] it was 10.7 µM.

With `O=C1C(c2cccnc2)=C(c2ccoc2)c2ccc(OCOCc3ccccc3)cc21` [Compound 40, 6-((benzyloxy)methoxy)-3-(furan-3-yl)-2-(pyridin-3-yl)-1H-inden-1-one], the values for the EC50 (at Aβ1-42; in assay [1]) were 2.1 µM and 67.1 µM, respectively.

Consider `O=C1C(c2cccnc2)=C(c2ccoc2)c2ccc(OCCOc3ccccc3)cc21` [Compound 41, 3-(furan-3-yl)-6-(2-phenoxyethoxy)-2-(pyridin-3-yl)-1H-inden-1-one], for which the concentration for a half-maximal effect (EC50) at Aβ1-42 came to 1.1 µM; in assay [1] it was 4.8 µM.

For the compound `COc1ccc(OCCOc2ccc3c(c2)C(=O)C(c2cccnc2)=C3c2ccoc2)cc1` [Compound 42, 3-(furan-3-yl)-6-(2-(4-methoxyphenoxy)ethoxy)-2-(pyridin-3-yl)-1H-inden-1-one], the EC50 at Aβ1-42 was determined as 31.2 µM; in assay [1], 124 µM.

Take `COc1ccc(OCCOc2ccc3c(c2)C(=O)C(c2cccnc2)=C3c2ccoc2)cc1OC` [Compound 43, 6-(2-(3,4-dimethoxyphenoxy)ethoxy)-3-(furan-3-yl)-2-(pyridin-3-yl)-1H-inden-1-one]: the values for the EC50 (on Aβ1-42; in assay [1]) were 1.8 µM and 2.8 µM, respectively.

`O=C1C(c2cccnc2)=C(c2ccoc2)c2ccc(OCCOc3ccc4c(c3)OCO4)cc21` [Compound 44, 6-(2-(benzo[d][1,3]dioxol-5-yloxy)ethoxy)-3-(furan-3-yl)-2-(pyridin-3-yl)-1H-inden-1-one]: the EC50 at Aβ1-42 worked out at 1.8 µM; in assay [1], 2.7 µM.

Regarding `O=C1C(c2cccnc2)=C(c2ccoc2)c2ccc(OCCOc3ccncc3)cc21` [Compound 45, 3-(furan-3-yl)-2-(pyridin-3-yl)-6-(2-(pyridin-4-yloxy)ethoxy)-1H-inden-1-one], the results for the concentration giving a half-maximal response (EC50) (on Aβ1-42; in assay [1]) were 9.1 µM and 11.9 µM, respectively.

Take `O=C1C(c2cccnc2)=C(c2ccoc2)c2ccc(OCCOc3ccc(Cl)c(Cl)c3)cc21` [Compound 46, 6-(2-(3,4-dichlorophenoxy)ethoxy)-3-(furan-3-yl)-2-(pyridin-3-yl)-1H-inden-1-one]: the EC50 turned out to be 1.4 µM on Aβ1-42 and 2.1 µM in assay [1].

Regarding `O=C1C(c2cccnc2)=C(c2ccoc2)c2ccc(OCCOc3ccc(F)c(F)c3)cc21` [Compound 47, 6-(2-(3,4-difluorophenoxy)ethoxy)-3-(furan-3-yl)-2-(pyridin-3-yl)-1H-inden-1-one], the EC50 amounted to 1.7 µM on Aβ1-42 and 57 µM in assay [1].

As to `CN(C)c1ccc(OCCOc2ccc3c(c2)C(=O)C(c2cccnc2)=C3c2ccoc2)cc1` [Compound 48, 6-(2-(4-(dimethylamino)phenoxy)ethoxy)-3-(furan-3-yl)-2-(pyridin-3-yl)-1H-inden-1-one], the results for the EC50 (on Aβ1-42; in assay [1]) were 2.3 µM and 4.1 µM, respectively.

Regarding `CC(C)c1ccc(OCCOc2ccc3c(c2)C(=O)C(c2cccnc2)=C3c2ccoc2)cc1` [Compound 49, 3-(furan-3-yl)-6-(2-(4-isopropylphenoxy)ethoxy)-2-(pyridin-3-yl)-1H-inden-1-one], the figures for the 50% effective concentration (EC50) (at Aβ1-42; in assay [1]) were 1.5 µM and 1.9 µM, respectively.

With `COc1ccc(COCOc2ccc3c(c2)C(=O)C(c2cccnc2)=C3c2ccoc2)cc1` [Compound 50, 3-(furan-3-yl)-6-(((4-methoxybenzyl)oxy)methoxy)-2-(pyridin-3-yl)-1H-inden-1-one], the EC50 at Aβ1-42 was 2.3 µM; in assay [1] it was 19.9 µM.
